{"source": "patent US8841316B2", "about": "“Multicomponent crystalline system of rosuvastatin calcium salt and vanillin” (BASF SE, priority 2011, dated 2014)", "assay": "Water vapor sorption (water content under humidity)", "assay_type": "physicochemical"}
{"substance": "bis[(E)-7-[4-(4-fluorophenyl)-6-isopropyl-2-[methyl(methylsulfonyl)amino]pyrimidin-5-yl](3R,5S)-3,5-dihydroxyhept-6-enoic acid] calcium salt [Crystal form A]", "values": [{"measurement": "Water vapor sorption: water content after 2 h at 50% r.h.", "setting": "after 2 h at 50% r.h.", "result": 6.2, "unit": "%"}, {"measurement": "Water vapor sorption: water content after 5 h at 95% r.h.", "setting": "after 5 h at 95% r.h.", "result": 10.1, "unit": "%"}]}
